Data: EP4574151A1, “INHIBITORS OF G12V-MUTATED RAS PROTEIN TO TREAT CANCER” (Personather Spolka Z Ograniczona Odpowiedzialnoscia, priority 2023, dated 2025)

What was measured:
[1] = test system: SW620 cells (with RASG12V mutation); assay: Crystal violet cytotoxicity test (IC50) in KRASG12V positive cells; type: cell-based; conditions: summary statement
Description: IC50 (half-maximal inhibitory concentration) is the concentration value of a tested compound which inhibits biochemical and biological functions of cells in half of the tested population. Determining this indicator is extremely important for assessing the cytotoxicity of molecules with therapeutic potential.
The first step in developing the methodology for determining IC50 was to conduct density tests to determine the appropriate number of cells to use in cytotoxicity tests. The different content of bovine fetal serum in the culture medium was also investigated to rule out any potential impact on the reduction in cell count, regardless of the analyzed molecules.
(§1) As a research model, colon cancer and lung cancer cell lines (sensitive lines) were used, including SW620, SW480, and COR-L23, respectively, which are characterized by the KRASG12V gene mutation and lack of other alterations in genes belonging to the RAS protein signaling pathway, as well as a stable line of normal cells (mouse fibroblasts), which serve as a platform for evaluating the impact of tested compounds on non-cancer cells. Below is the result for one of the analyzed cell lines with the mutation. Similar differences in IC50 values compared to normal cells were obtained for the other cell lines mentioned above with the RASG12V mutation.
(§2) The effect of molecules on the biology of selected cell lines to assess their cytotoxicity using the IC50 indicator was carried out according to the protocol below: • 1. The cells of the tested lines were seeded in wells of a 96-well plate at specified densities. • 2. After seeding, the cells were subjected to a 24-hour incubation in medium with a 1% and 2.5% addition of serum (sensitive lines) or in medium with a 0.5% addition of serum (normal line). • 3. The cells were exposed to selected molecules at selected concentrations. The control was provided by the culture medium without any added compounds. Concentrations of the tested molecules [uM]: • □ NIH3T3: 500; 250; 125; 62,5; 31,25 • □ SW620: 60; 30; 15; 7,5; 3,75 • 4. After 72 hours of incubation, the culture medium was removed and the cells were washed twice with buffer saline solution (PBS). Then, the cells were incubated for 10 minutes with a 0.1% solution of crystal violet at room temperature (Merck Millipore). • 5. After 10 minutes, the crystal violet solution was removed and the wells of the 96-well plate were washed twice with PBS solution. • 4. 50% ice-cold acetic acid solution was added to each well and incubated again for 10 minutes at room temperature on a shaker at 650 rpm. • 5. Absorbance measurement was performed using a plate reader, at a wavelength of λ = 540 nm

[2] = test system: NIH/3T3 cell line - immortalized mouse fibroblasts; assay: Crystal violet cytotoxicity test in normal cells; type: cell-based; conditions: summary statement; normal cells NIH/3T3 and PER49
Description: To evaluate the toxicity of the tested compound on normal cells, the NIH/3T3 cell line - immortalized mouse fibroblasts and normal pericytes (PER49) were used.
as §1, §2

NCI-H1975 = assay: Toxicity against cancer cells expressing wild type RAS; type: cell-based; conditions: summary statement
Procedure: The results of in vitro analyses were presented in the examples. Commercially available cancer cell lines were used for the studies, including SW480, SW620, and COR-L23, showing endogenous expression of KRASG12V, as well as a cell line with exogenously introduced KRASG12V mutation (using methods of genetic engineering) - the DK-MGEGFRvIIIKRASG12V line. Additionally, the cancer cell line NCI- H1975, characterized by the expression of wild type RASWT proteins, was also analyzed.

BALB/c mice = assay: Acute toxicity after oral administration (Acute Toxicity test TG425); type: in vivo; conditions: female BALB/c mice, oral by gastric probe, 40 mg of substance in corn oil, three mice, observed two weeks
Description: The study was planned according to Acute Toxicity Test 425 (oral administration) - higher-lower-dose procedure, in accordance with the OECD regulation of October 3, 2008. The test procedure described in these guidelines is useful in minimizing the number of animals needed to estimate the acute toxicity after oral administration of potential drugs. In addition to the LD50 assessment and confidence intervals, the test allows for the observation of signs of toxicity. For this purpose, an experiment was agreed upon with the Local Ethics Committee for Animal Experimentation, using BALB/c mice. The TG425 method allows for the estimation of LD50 values with confidence intervals, and the results allow for the classification of substances according to the global harmonized system for the classification of chemicals that cause acute toxicity.
A sequential test, utilizing a maximum of 5 animals, was applied, which is known as the limit test. A test dose of either 2000 or uniquely 5000 mg/kg can be used. The testing procedures at 2000 and 5000 mg/kg differ slightly (see Sections 23-25 for the limit test at 2000 mg/kg and Sections 26-30 for the limit test at 5000 mg/kg). The selection of a sequential testing plan increases the statistical power, and a deliberate deviation from the limit test rejection procedure was made for compounds with an LD50 near the limit dose; i.e. committing an error on the side of caution. As with any limit test protocol, the probability of correct compound classification will decrease, as the actual LD50 value more closely resembles the limit dose.
• 1. Female Balb/c mice, which were 50-56 days postpartum, were used for the purposes of this experiment. • 2. Mice underwent a 1-week quarantine after being transported to the laboratory. • 3. The studied molecules (PER154A, PER160A, PER170A, PER176A) were suspended according to the TG425 protocol, i.e. 40 mg of substance in […] of laboratory corn oil and orally administered through a plastic gastro probe (used: 20ga (0.9 mm OD x 0.5 mm ID), 38 mm), which was suitable for the size of the animal (17-21 g). The mice were observed and weighed almost daily. • 4. Mouse housing conditions: up to 4 mice per cage; temperature: 23.2 - 23.40°C; humidity: 27.6 - 40.9% relative humidity. • 5. Two weeks later (time counted separately for each mouse), a resection was performed to analyze internal organs for any abnormalities.

SMILES | toxicity against cancer cells expressing KRASG12V [1] | toxicity against normal cells [2] | toxicity against cancer cells expressing normal RAS protein (NCI-H1975) | safety in acute oral toxicity test (BALB/c mice)
Cc1ccc(NC(=O)c2ccc3c(c2)C2C4CCC(C4)C2C(c2ccccc2)N3)cc1C (centres unmarked) [PER170A] | toxicity | no toxicity | no toxicity | safe for mice
O=C(Nc1ccc(Br)c(Cl)c1)c1ccc2c(c1)C1C3CCC(C3)C1C(c1ccccc1)N2 (centres unmarked) [PER176A] | toxicity | no toxicity | no toxicity | safe for mice
